Laboratory results published in ChEMBL document CHEMBL1201862, “PubChem BioAssay data set” (2004).
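Five compound concentrations were applied to cells in 96-well plates for 48 hours; endpoints were derived by simple linear interpolation of the resulting dose-response curve. At the GI50, growth is halved.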 Calls of active or inactive are those of the source. Rule as the data show it: active = GI50 up to about 1.1 µM and inactive = higher.

What was measured:
Assay in all cases: NCI tumour cell line growth inhibition, 48 h
HOP-62 = system: HOP-62
HOP-92 = system: HOP-92
SF-295 = system: SF-295
EKVX = system: EKVX
K562 = system: K562
KM12 = system: KM12
BT-549 = system: BT-549
U-251 = system: U-251
TK-10 = system: TK-10
SN12C = system: SN12C
OVCAR-4 = system: OVCAR-4
786-0 = system: 786-0
HT-29 = system: HT-29
CCRF-CEM = system: CCRF-CEM
COLO 205 = system: COLO 205
UO-31 = system: UO-31
OVCAR-3 = system: OVCAR-3
MDA-N = system: MDA-N
T47D = system: T47D

Measured: GI50

COc1ccc2oc(=O)c(-c3csc(C)n3)cc2c1
inactive: HOP-62 31 µM | HOP-92 19.5 µM | SF-295 18.6 µM | EKVX 56.5 µM | K562 > 100 µM | KM12 > 100 µM | BT-549 15.8 µM | U-251 23 µM | TK-10 26 µM | SN12C > 100 µM | OVCAR-4 85.3 µM | 786-0 54.2 µM | HT-29 > 100 µM | CCRF-CEM > 100 µM | COLO 205 > 100 µM | UO-31 69.2 µM

CCC(C)C(NC(=O)c1c2ccccc2nc2ccccc12)C(=O)O (centres undefined)
inactive: HOP-62 > 100 µM | HOP-92 > 100 µM | SF-295 > 100 µM | EKVX > 100 µM | K562 > 100 µM | KM12 > 100 µM | BT-549 22.6 µM | U-251 > 100 µM | TK-10 > 100 µM | SN12C > 100 µM | OVCAR-4 > 100 µM | 786-0 > 100 µM | OVCAR-3 > 100 µM | HT-29 75.9 µM | CCRF-CEM 31.7 µM | COLO 205 > 100 µM | UO-31 25.1 µM

O=C(NNCC(O)COc1ccccc1)c1ccccc1 (centres undefined)
inactive: HOP-62 > 100 µM | HOP-92 > 100 µM | SF-295 > 100 µM | EKVX > 100 µM | MDA-N > 100 µM | K562 > 100 µM | KM12 > 100 µM | U-251 > 100 µM | TK-10 > 100 µM | SN12C > 100 µM | T47D > 100 µM | OVCAR-4 > 100 µM | 786-0 > 100 µM | OVCAR-3 > 100 µM | HT-29 > 100 µM | CCRF-CEM > 100 µM | COLO 205 > 100 µM | UO-31 > 100 µM

CC1(C)SCc2nc3ccccc3n21
inactive: HOP-62 > 100 µM | HOP-92 > 100 µM | SF-295 > 100 µM | EKVX > 100 µM | MDA-N > 100 µM | K562 > 100 µM | KM12 > 100 µM | U-251 > 100 µM | TK-10 > 100 µM | SN12C > 100 µM | T47D > 100 µM | OVCAR-4 > 100 µM | 786-0 > 100 µM | OVCAR-3 > 100 µM | HT-29 > 100 µM | CCRF-CEM > 100 µM | COLO 205 > 100 µM | UO-31 > 100 µM

COP(=O)(OC)/C(=C\c1cn(C(c2ccccc2)(c2ccccc2)c2ccccc2)cn1)NC(C)=O
inactive: HOP-62 > 100 µM | HOP-92 > 100 µM | SF-295 > 100 µM | EKVX > 100 µM | MDA-N > 100 µM | K562 51.8 µM | KM12 52.4 µM | U-251 > 100 µM | TK-10 > 100 µM | SN12C > 100 µM | T47D > 100 µM | OVCAR-4 > 100 µM | 786-0 > 100 µM | OVCAR-3 > 100 µM | HT-29 68.5 µM | CCRF-CEM 77.1 µM | COLO 205 84.3 µM | UO-31 > 100 µM

Cc1cc2ccccc2c[n+]1CC(=O)CC([O-])(C(F)(F)F)C(F)(F)F
inactive: HOP-62 > 100 µM | HOP-92 58.1 µM | SF-295 > 100 µM | EKVX > 100 µM | MDA-N > 100 µM | K562 72.8 µM | U-251 > 100 µM | SN12C > 100 µM | T47D > 100 µM | OVCAR-4 > 100 µM | 786-0 > 100 µM | OVCAR-3 53.2 µM | HT-29 56.6 µM | CCRF-CEM 90.8 µM | COLO 205 > 100 µM | UO-31 > 100 µM

CCCCCCCCCC(=O)CC(=O)c1c(O)cc(O)cc1O
inactive: HOP-62 13.6 µM | HOP-92 20 µM | SF-295 25.9 µM | EKVX 31.5 µM | MDA-N 16.9 µM | K562 15.2 µM | KM12 18.1 µM | U-251 23.8 µM | TK-10 30.4 µM | SN12C 20.6 µM | T47D 34.7 µM | OVCAR-4 16.3 µM | 786-0 28 µM | OVCAR-3 16.4 µM | HT-29 17.1 µM | CCRF-CEM 34.3 µM | COLO 205 26.6 µM | UO-31 15.5 µM

CCCNc1ncnc2c1ncn2C
inactive: HOP-62 35.2 µM | HOP-92 37.6 µM | SF-295 40.6 µM | EKVX > 100 µM | MDA-N > 100 µM | K562 53.1 µM | KM12 > 100 µM | U-251 > 100 µM | TK-10 > 100 µM | SN12C 27.4 µM | T47D 44.4 µM | OVCAR-4 > 100 µM | 786-0 48.8 µM | OVCAR-3 58.5 µM | CCRF-CEM 22.1 µM | COLO 205 96.4 µM | UO-31 85.1 µM

CCOC(=O)c1c(SCCCN2CCCCC2)n(-c2ccccc2)c(=S)n(-c2ccccc2)c1=O
inactive: HOP-62 33 µM | HOP-92 14.4 µM | EKVX 27.8 µM | MDA-N 15 µM | K562 5.48 µM | KM12 19.2 µM | U-251 16.9 µM | TK-10 20.6 µM | SN12C 16.2 µM | T47D 16.7 µM | OVCAR-4 17.7 µM | 786-0 3.87 µM | OVCAR-3 16.7 µM | HT-29 20.3 µM | CCRF-CEM 15.3 µM | COLO 205 16.4 µM | UO-31 15.5 µM

CN(c1ccccc1)C1C(=O)N(c2ccccc2)C1/C=C/c1ccccc1 (centres undefined)
inactive: HOP-92 > 100 µM | SF-295 > 100 µM | EKVX > 100 µM | KM12 > 100 µM | U-251 > 100 µM | TK-10 > 100 µM | SN12C > 100 µM | 786-0 > 100 µM | OVCAR-3 > 100 µM | HT-29 > 100 µM | CCRF-CEM > 100 µM | COLO 205 > 100 µM | UO-31 > 100 µM

CC(=O)c1ccc(Br)cc1NC1=CC(=O)c2ncccc2C1=O
inactive: HOP-62 3.47 µM | HOP-92 12.2 µM | SF-295 4.62 µM | EKVX 6.4 µM | MDA-N 1.81 µM | K562 1.49 µM | KM12 1.83 µM | U-251 6.22 µM | TK-10 17.6 µM | SN12C 7 µM | T47D 3.85 µM | OVCAR-4 1.83 µM | 786-0 3.71 µM | OVCAR-3 1.61 µM | HT-29 3.24 µM | CCRF-CEM 3.47 µM | COLO 205 3.18 µM | UO-31 3.86 µM

C/C(=N/NC(=S)Nc1ccccc1Cl)c1cccc(/C(C)=N\NC(=S)Nc2ccccc2Cl)n1
inactive: HOP-62 > 100 µM | HOP-92 > 100 µM | SF-295 > 100 µM | EKVX > 100 µM | MDA-N > 100 µM | K562 18.7 µM | KM12 7.24 µM | U-251 26.7 µM | TK-10 49.1 µM | SN12C > 100 µM | T47D > 100 µM | OVCAR-4 28.4 µM | 786-0 7.33 µM | OVCAR-3 16.3 µM | HT-29 > 100 µM | CCRF-CEM 9.79 µM | COLO 205 56.8 µM | UO-31 44 µM
